Data from PubChem BioAssay AID1918941 (Molecular Pharmacology Branch, DTP, NCI, 2023).

Test system: SW 1271 complex spheroids, viability
Experiment: Anticancer human tumor SW 1271 cell line growth inhibition [LSD1];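 note: spheroids exposed to agents for 7 days before luminescence read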;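 for viability, T/C: 100% = DMSO vehicle control viability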
Conditions: for IC50: curve of first compound; for viability, T/C: stronger effect = lower value
Procedure, shortened: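 Complex spheroids of tumor cells with HUVEC and human MSCs, exposed to iadademstat combined with other agents. Each agent tested in half-log steps from near clinical Cmax (else 10 microM top), DMSO ≤0.25%.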

[1] = second compound 0.1 µM, first compound 0.00949 µM
[2] = second compound 0.1 µM, first compound 0.03 µM
[3] = second compound 0.1 µM, first compound 0.0949 µM
[4] = second compound 0.1 µM, first compound 0.3 µM
[5] = second compound 0.316 µM, first compound 0.00949 µM
[6] = second compound 0.316 µM, first compound 0.03 µM
[7] = second compound 0.316 µM, first compound 0.0949 µM
[8] = second compound 0.316 µM, first compound 0.3 µM
[9] = second compound 1 µM, first compound 0.00949 µM
[10] = second compound 1 µM, first compound 0.03 µM
[11] = second compound 1 µM, first compound 0.0949 µM
[12] = second compound 1 µM, first compound 0.3 µM
[13] = second compound 3.16 µM, first compound 0.00949 µM
[14] = second compound 3.16 µM, first compound 0.03 µM
[15] = second compound 3.16 µM, first compound 0.0949 µM
[16] = second compound 3.16 µM, first compound 0.3 µM
[17] = second compound 10 µM, first compound 0.00949 µM
[18] = second compound 10 µM, first compound 0.03 µM
[19] = second compound 10 µM, first compound 0.0949 µM
[20] = second compound 10 µM, first compound 0.3 µM

| SMILES | IC50 (second compound 0.1 µM) [µM] | IC50 (second compound 0.316 µM) [µM] | IC50 (second compound 1 µM) [µM] | IC50 (second compound 3.16 µM) [µM] | IC50 (second compound 10 µM) [µM] | viability, T/C [1] [%] | viability, T/C [2] [%] | viability, T/C [3] [%] | viability, T/C [4] [%] | viability, T/C [5] [%] | viability, T/C [6] [%] | viability, T/C [7] [%] | viability, T/C [8] [%] | viability, T/C [9] [%] | viability, T/C [10] [%] | viability, T/C [11] [%] | viability, T/C [12] [%] | viability, T/C [13] [%] | viability, T/C [14] [%] | viability, T/C [15] [%] | further results |
| --- | --- | --- | --- | --- | --- | --- | --- | --- | --- | --- | --- | --- | --- | --- | --- | --- | --- | --- | --- | --- | --- |
| COc1cc(C2c3cc4c(cc3C(OC3OC5COC(C)OC5C(O)C3O)C3COC(=O)C23)OCO4)cc(OC)c1O (stereo not given) + NC1CCC(NC2CC2c2ccccc2)CC1 | 2.66 | > 3 | > 3 | > 3 | > 3 | 77 | 76.8 | 80.5 | 68.9 | 88.7 | 94.4 | 75 | 66.7 | 80.2 | 80.2 | 74.2 | 75 | 95.7 | 70.9 | 71.8 | viability, T/C (second compound 0.1 µM, first compound 0.949 µM): 78.7%; viability, T/C (second compound 0.1 µM, first compound 3 µM): 47%; viability, T/C (second compound 0.316 µM, first compound 0.949 µM): 58.4%; viability, T/C (second compound 0.316 µM, first compound 3 µM): 64.1%; viability, T/C (second compound 1 µM, first compound 0.949 µM): 66.7%; viability, T/C (second compound 1 µM, first compound 3 µM): 56.9%; viability, T/C [16]: 73.4%; viability, T/C (second compound 3.16 µM, first compound 0.949 µM): 58.9%; viability, T/C (second compound 3.16 µM, first compound 3 µM): 60.8%; viability, T/C [17]: 77%; viability, T/C [18]: 80.9%; viability, T/C [19]: 72.1%; viability, T/C [20]: 72.2%; viability, T/C (second compound 10 µM, first compound 0.949 µM): 58.4%; viability, T/C (second compound 10 µM, first compound 3 µM): 64.3% |
| Nc1ccn(C2OC(CO)C(O)C2(F)F)c(=O)n1 (stereo not given) + NC1CCC(NC2CC2c2ccccc2)CC1 | > 0.3 | > 0.3 | > 0.3 | > 0.3 | > 0.3 | 62.5 | 59.5 | 69.3 | 71.4 | 76.2 | 61.3 | 62.7 | 59.6 | 59.8 | 66.3 | 56.1 | 59.4 | 84.5 | 59.8 | 60.5 | viability, T/C (second compound 0.1 µM, first compound 0.000949 µM): 83.3%; viability, T/C (second compound 0.1 µM, first compound 0.003 µM): 69.4%; viability, T/C (second compound 0.316 µM, first compound 0.000949 µM): 73.8%; viability, T/C (second compound 0.316 µM, first compound 0.003 µM): 71.2%; viability, T/C (second compound 1 µM, first compound 0.000949 µM): 80.7%; viability, T/C (second compound 1 µM, first compound 0.003 µM): 64.6%; viability, T/C (second compound 3.16 µM, first compound 0.000949 µM): 67.5%; viability, T/C (second compound 3.16 µM, first compound 0.003 µM): 68.4%; viability, T/C [16]: 63%; viability, T/C (second compound 10 µM, first compound 0.000949 µM): 83.7%; viability, T/C (second compound 10 µM, first compound 0.003 µM): 64.3%; viability, T/C [17]: 62.5%; viability, T/C [18]: 68.6%; viability, T/C [19]: 60.7%; viability, T/C [20]: 64.9% |
